From US10358531B2, “Crosslinked polymer nano-assemblies and uses thereof” (University of Massachusetts, priority 2011, dated 2019)

Legend:
MCF-7 cells = assay: Cell uptake of free Dox and Dox-loaded nanogels by confocal microscopy; assay type: cell-based; conditions: 20 μM Dox concentration, 3-4 h
Experimental: For further study, the cell uptake of both free Dox and Dox-loaded nanogels (20 μM Dox concentration) was monitored using confocal microscopy over time. Initial internalization of Dox was observed within 3 h for free Dox and NG3-Dox, but not until 4 h for NG1-Dox (FIG. 9c-g). […] This is presumably the reason that the two nanogels show similar toxicities.
Laser Scanning Confocal Microscopy: The laser confocal experiment was performed with MCF-7 cells. MCF-7 cells were cultured in T75 cell culture flask containing DMEM/F12 with 10% FBS supplement. The cells were seeded at 10,000 cells/100 μL in cover slip-bottomed Petri dishes and allowed to grow for 3 days at 37° C. in a 5% CO2 incubator. The cells in 2 mL of culture medium were treated with 200 μL of nanogels containing two dyes or doxorubicin and incubated at 37° C. for different time intervals before monitoring the cells by confocal microscopy.

HeLa cells [1] = assay: Toxicity of PTX-loaded carriers, Alamar Blue assay; assay type: cell-based; conditions: 72 h, 10 μM PTX
Experimental: (§1) Selective delivery of chemotherapeutic drug. To test whether the observed target selectivity would translate into differential cell kill efficiency, the ligand-coated nanogels encapsulating a chemotherapeutic drug molecule, paclitaxel (PTX) were prepared. The PTX-loaded polymeric aggregates (polymer-PTX), NG (NG-PTX) and NG-RGD (NG-RGD-PTX) were added to MCF7 cells and HeLa cells and the extent of cell death was investigated after 72 h. […] This supports the hypothesis that the polymeric micellar aggregates have a leaky nature, which leads to free drug being translocated through the cellular membrane. […] This is consistent with the observed slow internalization of nanogels, which should result in a reduced amount of chemotherapeutic inside the cells.
(§2) Cell culture: The cell viabilities of the nanogels were tested with 293T cells. 293T cells were cultured in T75 cell culture flasks using Dulbecco's Modified Eagle Medium/Nutrient Mixture F-12 (DMEM/F12) with 10% fetal bovine serum (FBS) supplement. […] Cell viability was measured using the Alamar Blue assay with each data point measured in triplicate. Fluorescence measurements were made using the plate reader SpectraMax M5 by setting the excitation wavelength at 560 nm and monitoring emission at 590 nm on a black well plate. […] Cell death was measured by the Alamar Blue assay in triplicate.

MCF7 cells = assay: Toxicity of PTX-loaded carriers, Alamar Blue assay; assay type: cell-based; conditions: MCF7, 72 h, 10 μM PTX
Experimental: as §1, §2

HeLa cells [2] = assay: Intracellular delivery of DiI and FITC-β-gal by confocal microscopy; assay type: cell-based; conditions: without nanogel
Experimental: Intracellular delivery of DiI and β-gal was also tested. As the nanogels consist of biodegradable disulfide crosslinkers, the release of the complexed protein and encapsulated lipophilic molecule can be triggered upon exposure to glutathione (present at higher concentrations inside the cells (mM), compared to the extracellular concentration […]). To compare the release profile of these dual delivery systems, NG1-CRRR and NG2-CRRR containing DiI in its interior and complexed with FITC labeled β-gal, were added to HeLa cells with serum and without serum. In the case of cell internalization of both encapsulated DiI and FITC labeled protein, a yellow color would be observed due to the co-localization and overlay of both red and green fluorophores for DiI and FITC, respectively. If there is no internalization of the nanogel, no color could be observed.
Fluorescence distribution of DiI and FITC was observed over time by confocal fluorescence microscopy with simultaneous excitation of both dye molecules at 488 nm and 543 nm for FITC and DiI, respectively. As shown in FIGS. 33a and 33b, green and red emissions were observed when the cells were treated with the nanogel-protein complexes. […] The green fluorescence of the FITC (label for protein) and red fluorescence for DiI (encapsulated small molecule) appear uniformly distributed. […]

[3] = DLS size of NG-CRRR nanogels, β-gal and complexes; estimated numbers per complex; assay type: physicochemical
Excerpt: Also evaluated were the size change and charge alteration of the nanogel surface due to the complexation event using DLS and zeta potential measurements respectively.

Q: Which “intracellular localization of Dox” value (MCF-7 cells) does the source give for `COc1cccc2c1C(=O)c1c(O)c3c(c(O)c1C2=O)C[C@@](O)(C(=O)CO)C[C@@H]3O[C@H]1C[C@H](N)[C@H](O)[C@H](C)O1` [free Dox, doxorubicin] here?
A: Its value is “significant accumulation in the nucleus”.

Q: For `CC(=O)O[C@H]1C(=O)[C@@]2(C)[C@H]([C@H](OC(=O)c3ccccc3)[C@]3(O)C[C@H](OC(=O)[C@H](O)[C@@H](NC(=O)c4ccccc4)c4ccccc4)C(C)=C1C3(C)C)[C@]1(OC(C)=O)CO[C@@H]1C[C@@H]2O` [free PTX, paclitaxel], which “toxicity (cell death)” value (HeLa cells [1]) is on record?
A: The value was “highly toxic”.

Q: And the “toxicity (cell death)” value (MCF7 cells)?
A: Its value is “highly toxic”.

Q: For “FITC-β-gal: β-gal functionalized with fluorescein”, which “intracellular delivery of protein alone” value (HeLa cells [2]) is on record?
A: The value was “no fluorescence”.

Q: Which hydrodynamic diameter [3] does the source give for “β-gal: β-galactosidase (pI: 4.8, from E. coli), the model protein” here?
A: The hydrodynamic diameter was about 10 nm.

Q: And the “intracellular delivery of protein alone” value (HeLa cells [2])?
A: The value was “not efficient”.
